Read-outs that look alike come from different tables or passages of the source.
Columns and labels:
Format in all cases: cell-based
[1] = tested on: HBV DNA in HepG2.2.15 cells; test: In vitro cell HBV DNA inhibitory activity (anti-HBV activity) in HepG2.2.15 cells; conditions: Hepatitis B virus
Protocol: (§1) A bottle of HepG2.2.15 or HepAD38 cells in good exponential growth state was taken, washed once by adding 5 mL PBS, and then thereto was added 3 mL trypsin. After digesting at room temperature for 5 min, 2 mL trypsin was discarded, and then the sample was placed in a cell culture incubator and digested for 10 min. The cells were taken out from time to time and observed under a microscope (whether the cells were individually round and there was no adhesion between the cells). 10 mL complete medium was added to terminate the digestion. After pipetting into a single cell suspension, 10 μL of the cell suspension was taken out for cell counting with a cell counter, and then diluted with a complete medium and adjusted to a cell density of 1*10^5 cells/mL. Then the cell suspension was seeded at 1 mL/well in a 24-well plate with a multi-channel pipette (the 24-well plate was coated with 50 μg/mL Collagen I solution in advance), and cultured in a constant temperature CO2 incubator for 48 h.
(§2) Different compounds dissolved in DMSO were subjected to two-fold gradient dilution (10 concentrations in total) with complete medium. The compound was added, and fresh medium containing the compound was used to replace the spent medium every 72 hours. The cells were treated with the compound for 6 days. After the supernatant was siphoned off, 300 μL lysate (10 mM Tris-HCl, 1 mM EDTA, and 1% NP-40) was added to each well. After lysing at room temperature for 10 min, DNA was extracted, and HBV DNA in the intracellular viral capsid was measured by real-time fluorescence quantitative PCR. The inhibition rate was calculated based on the Ct value, and the EC50 value was calculated by the four-parameter method.

[2] = In vitro cytotoxicity (CCK-8) in HepG2.2.15 cells; conditions: human
Protocol: (§3) A bottle of HepG2.2.15 or HepAD38 cells in good exponential growth state was taken, washed once by adding 5 mL PBS, and then thereto was added 3 mL trypsin. The sample was digested in a cell culture incubator, and taken out from time to time and observed under a microscope. When the cells just fell off, 1 mL trypsin was discarded. The residual liquid was placed in a cell culture incubator at 37° C. and digested for 8-15 min. The cells were taken out and observed under a microscope (whether the cells were individually round and there was no adhesion between the cells). 5 mL MEM medium was added for cell resuspension. The cells were then subjected to cell counting with a cell counter, diluted with a complete medium, and adjusted to a cell density of 2*10^5 cells/mL. Then the cells were seeded at 100 μL/well in a 96-well plate with a multi-channel pipette (the 96-well plate was coated with 50 μg/mL Collagen I solution in advance), and cultured in a constant temperature CO2 incubator for 24 h. The cells were treated by drug administration, and fresh medium containing the compound was used to replace the spent medium every 3 days. To control wells was added a drug-free medium containing 0.5% DMSO, and a control well containing a common medium was set up. 6 days after the administration, CCK-8 was added at 10 μL/well. After 1 to 2 hours, the absorbance was detected with microplate reader at 450 nm, and the inhibition rate and the CC50 were calculated.

[3] = In vitro cytotoxicity (CCK-8) in HepAD38 cells; conditions: human
Protocol: as §3

[4] = tested on: HBV DNA in HepAD38 cells; test: In vitro cell HBV DNA inhibitory activity (anti-HBV activity) in HepAD38 cells; conditions: Hepatitis B virus
Protocol: as §1, §2

[5] = 144 h, anti-HBV activity in HepG2.2.15 cells, 6 days treatment, intracellular capsid HBV DNA by qPCR, read-out: EC50
[6] = 144 h, anti-HBV activity in HepAD38 cells, 6 days treatment, intracellular capsid HBV DNA by qPCR, read-out: EC50

Row | SMILES | EC50 [1, 5] [nM] | EC50 [4, 6] [nM] | further results
1 | Cc1c(C(=O)Nc2ccc(F)c(C#N)c2)c(C)n(C)c1C(=O)C(=O)NC1(CO)COC1 [Example 26] | 50 to 100 | 50 to 100 | CC50 at 6 days [2]: > 100000 nM; CC50 at 6 days [3]: > 100000 nM
2 | Cc1c(C(=O)Nc2ccc(F)c(C#N)c2)c(Cl)n(C)c1C(=O)C(=O)NC1(C(F)(F)F)COC1 [Example 32] | – | < 10 | –
3 | Cc1c(C(=O)Nc2ccc(F)c(C#N)c2)c(C)n(C)c1C(=O)C(=O)N[C@@H]1CCOC1 [Example 21] | 50 to 100 | 10 to 50 | CC50 at 6 days [2]: > 100000 nM; CC50 at 6 days [3]: > 100000 nM
4 | Cc1c(C(=O)Nc2ccc(F)c(C#N)c2)c(C)n(C)c1C(=O)C(=O)NC1(C)CCOCC1 [Example 24, N-(3-cyano-4-fluorophenyl)-1,2,4-trimethyl-5-(2-((4-methyltetrahydro-2H-pyran-4-yl)amino)-2-oxoacetyl)-1H-pyrrole-3-carboxamide] | < 10 | < 10 | CC50 at 6 days [2]: > 100000 nM; CC50 at 6 days [3]: > 100000 nM
5 | Cc1c(C(=O)Nc2ccc(F)c(C#N)c2)c(Cl)n(C)c1C(=O)C(=O)NC1(C)COC1 [Example 34, 2-chloro-N-(3-cyano-4-fluorophenyl)-1,4-dimethyl-5-(2-((3-methyloxetan-3-yl)amino)-2-oxoacetyl)-1H-pyrrole-3-carboxamide] | – | 10 to 50 | –
6 | [2H]C([2H])([2H])n1c(C)c(C(=O)Nc2ccc(F)c(C#N)c2)c(C)c1C(=O)C(=O)N[C@@H](C)C(F)(F)F [Example 60, (S)—N-(3-cyano-4-fluorophenyl)-2,4-dimethyl-1-(methyl-d3)-5-(2-oxo-2-((1,1,1-trifluoroprop-2-yl)amino)acetyl)-1H-pyrrole-3-carboxamide] | – | < 10 | –
7 | Cn1cc(C(=O)Nc2ccc(F)c(C#N)c2)cc1C(=O)C(=O)NC1(C(F)(F)F)COC1 [Example 50, N-(3-cyano-4-fluorophenyl)-1-methyl-5-(2-oxo-2-((3-(trifluoromethyl)oxetan-3-yl)amino)acetyl)-1H-pyrrole-3-carboxamide] | – | 50 to 100 | –
8 | Cc1c(C(=O)Nc2ccc(F)c(C#N)c2)c(C)n(C)c1C(=O)C(=O)NC1(C)CC(O)C1 (centres unmarked) [Example 46, N-(3-cyano-4-fluorophenyl)-5-(2-((3-hydroxy-1-methylcyclobutyl)amino)-2-oxoacetyl)-1,2,4-trimethyl-1H-pyrrole-3-carboxamide] | < 10 | 10 to 50 | –
9 | Cc1c(C(=O)Nc2ccc(F)c(C#N)c2)c(F)c(C(=O)C(=O)N[C@@H](C)C(F)(F)F)n1C [Example 54, (S)—N-(3-cyano-4-fluorophenyl)-4-fluoro-1,2-dimethyl-5-(2-oxo-2-((1,1,1-trifluoroprop-2-yl)amino)acetyl)-1H-pyrrole-3-carboxamide] | – | – | EC50 ([1]; HepG2.2.15, 144 h): < 10 nM; EC50 ([4]; HePAD38, 144 h): 10 to 50 nM
10 | Cc1c(C(=O)Nc2ccc(F)c(C#N)c2)cn(C)c1C(=O)C(=O)NC(C)(C)C [Example 14, 5-(2-(tert-butylamino)-2-oxoacetyl)-N-(3-cyano-4-fluorophenyl)-1,4-dimethyl-1H-pyrrole-3-carboxamide] | – | 10 to 50 | –
11 | Cc1c(C(=O)Nc2ccc(F)c(C#N)c2)c(C)n(C)c1C(=O)C(=O)NC1(C)CCOC1 (centres unmarked) [Example 23] | < 10 | < 10 | CC50 at 6 days [2]: > 100000 nM; CC50 at 6 days [3]: > 100000 nM
12 | CNC(=O)C1(NC(=O)C(=O)c2c(C)c(C(=O)Nc3ccc(F)c(C#N)c3)c(C)n2C)CC(F)(F)C1 [Example 28] | – | – | EC50 ([4]; HePAD38, 144 h): 10 to 50 nM
13 | Cn1c(Br)c(C(=O)Nc2ccc(F)c(C#N)c2)c(Br)c1C(=O)C(=O)NC(C)(C)C [Example 20, 2,4-dibromo-5-(2-(tert-butylamino)-2-oxoacetyl)-N-(3-cyano-4-fluorophenyl)-1-methyl-1H-pyrrole-3-carboxamide] | 50 to 100 | 10 to 50 | –
14 | Cc1c(C(=O)Nc2ccc(F)c(F)c2)c(C)n(C)c1C(=O)C(=O)N[C@@H](C)C(F)(F)F [Example 38, (S)—N-(3,4-difluorophenyl)-1,2,4-trimethyl-5-(2-oxo-2-((1,1,1-trifluoroprop-2-yl)amino)acetyl)-1H-pyrrole-3-carboxamide] | < 10 | < 10 | –
15 | Cc1c(C(=O)Nc2ccc(F)c(C#N)c2)c(Cl)n(C)c1C(=O)C(=O)NC1(C)CCOCC1 [Example 31] | – | < 10 | –
16 | Cc1c(C(=O)Nc2ccc(F)c(Cl)c2)c(C)n(C)c1C(=O)C(=O)NC1(C)CCOCC1 [Example 36, N-(3-chloro-4-fluorophenyl)-1,2,4-trimethyl-5-(2-((4-methyltetrahydro-2H-pyran-4-yl)amino)-2-oxoacetyl)-1H-pyrrole-3-carboxamide] | – | < 10 | –
17 | Cc1c(C(=O)Nc2cc(F)c(F)c(F)c2)c(C)n(C)c1C(=O)C(=O)NC1(C)COC1 [Example 47, 1,2,4-trimethyl-5-(2-((3-methyloxetan-3-yl)amino)-2-oxoacetyl)-N-(3,4,5-trifluorophenyl)-1H-pyrrole-3-carboxamide] | < 10 | < 10 | –
18 | Cc1c(C(=O)Nc2ccc(F)c(C#N)c2)cc(C(=O)C(=O)NC(C)(C)C)n1C [Example 16, 5-(2-(tert-butylamino)-2-oxoacetyl)-N-(3-cyano-4-fluorophenyl)-1,2-dimethyl-1H-pyrrole-3-carboxamide] | < 10 | – | CC50 at 6 days [3]: > 100000 nM
19 | Cc1c(C(=O)Nc2ccc(F)c(Cl)c2)c(Cl)n(C)c1C(=O)C(=O)N[C@@H](C)C(F)(F)F [Example 35, (S)-2-chloro-N-(3-chloro-4-fluorophenyl)-1,4-dimethyl-5-(2-oxo-2-((1,1,1-trifluoroprop-2-yl)amino)acetyl)-1H-pyrrole-3-carboxamide] | – | < 10 | –
20 | Cc1c(C(=O)Nc2ccc(F)c(C#N)c2)c(C)n(C)c1C(=O)C(=O)N[C@H]1C[C@@H](CO)C1 [Example 10, N-(3-cyano-4-fluorophenyl)-5-(2-((cis-3-(hydroxymethyl)cyclobutyl)amino)-2-oxoacetyl)-1,2,4-trimethyl-1H-pyrrole-3-carboxamide] | – | 10 to 50 | –
21 | Cc1c(C(=O)Nc2ccc(F)c(Cl)c2)c(C)n(C)c1C(=O)C(=O)N[C@@H](C)C(F)(F)F [Example 37, (S)—N-(3-chloro-4-fluorophenyl)-1,2,4-trimethyl-5-(2-oxo-2-((1,1,1-trifluoroprop-2-yl)amino)acetyl)-1H-pyrrole-3-carboxamide] | – | < 10 | –
22 | Cc1c(C(=O)Nc2ccc(F)c(C#N)c2)c(Cl)n(C)c1C(=O)C(=O)NC1(C)CC(O)C1 (centres unmarked) [Example 55, 2-chloro-N-(3-cyano-4-fluorophenyl)-5-(2-((3-hydroxy-1-methylcyclobutyl)amino)-2-oxoacetyl)-1,4-dimethyl-1H-pyrrole-3-carboxamide] | – | – | EC50 ([1]; HepG2.2.15, 144 h): 10 to 50 nM; EC50 ([4]; HePAD38, 144 h): 10 to 50 nM
23 | Cc1c(C(=O)Nc2ccc(F)c(C#N)c2)c(C)n(C)c1C(=O)C(=O)N[C@H]1C[C@@H](O)C1 [Example 4, N-(3-cyano-4-fluorophenyl)-5-(2-((cis-3-hydroxycyclobutyl)amino)-2-oxoacetyl)-1,2,4-trimethyl-1H-pyrrole-3-carboxamide] | – | 10 to 50 | –
24 | Cc1c(C(=O)Nc2ccc(F)c(C#N)c2)c(C)n(C)c1C(=O)C(=O)NC1COC1 [Example 5, N-(3-cyano-4-fluorophenyl)-1,2,4-trimethyl-5-(2-(oxetan-3-ylamino)-2-oxoacetyl)-1H-pyrrole-3-carboxamide] | – | 10 to 50 | –
25 | Cc1c(C(=O)Nc2ccc(F)cc2)c(C)n(C)c1C(=O)C(=O)N[C@@H](C)C(F)(F)F [Example 39] | < 10 | < 10 | CC50 at 6 days [2]: > 100000 nM
26 | Cc1c(C(=O)Nc2ccc(F)c(C#N)c2)c(C)n(C)c1C(=O)C(=O)N[C@H]1C[C@H](O)C1 [Example 3, N-(3-cyano-4-fluorophenyl)-5-(2-((trans-3-hydroxycyclobutyl)amino)-2-oxoacetyl)-1,2,4-trimethyl-1H-pyrrole-3-carboxamide] | – | 50 to 100 | –
